The source of these data is ChEMBL document CHEMBL6134872, “Efficacy and Toxicity Analysis of Selective BET Bromodomain Inhibitors in Models of Inflammatory Liver Disease” (J Med Chem, 2025).

The source made the active and inactive calls. The calls are words filed in the database; no cut-off is given here.

Data set [1] is described as follows: Toxicity in mouse Megakaryocyte cells assessed as reduction in thrombocytopenia risk by CFU-MK Assay. In kind it is cell-based.
For data set [2], the target named is T1, Bromodomain-containing protein 4 (Homo sapiens, UniProt O60885). The experiment in a line: Induction of stabilization of BRD4-BD1 in human HEK293T cells at 0.5 to 5 uM incubated for 2 hrs by CESTA analysis. It counts as cell-based. As to conditions: dose 0.5-5 µM.
The subject of data set [3] is Mus musculus. The experiment in a line: Antiinflammatory activity against APAP-induced C57BL/6J mouse liver injury model assessed as reduction in Cxcl2 expression at 30 mg/kg, po preincubated for 1 hr followed by APAP stimulation and measured after 8 hrs by qPCR analysis. It counts as functional, organism-based. As to conditions: time 9.0 hrs.
Data set [4] has as its system Mus musculus. In words: Antiinflammatory activity against LPS-induced C57BL/6J mouse model assessed as reduction in Ccl2 expression at 30 mg/kg, po preincubated for 1 hr followed by LPS stimulation and measured after 8 hrs by qPCR analysis. It counts as functional, organism-based. Conditions: time 9.0 hrs.
Data set [5] concerns Mus musculus. In words: Antiinflammatory activity against LPS-induced C57BL/6J mouse model assessed as reduction in Cxcl2 expression at 30 mg/kg, po preincubated for 1 hr followed by LPS stimulation and measured after 8 hrs by qPCR analysis. In kind it is functional, organism-based. As to conditions: time 9.0 hrs.
Data set [6] concerns Mus musculus. In words: Antiinflammatory activity against LPS-induced C57BL/6J mouse model assessed as reduction in goblet cell in small intestine at 30 mg/kg, po preincubated for 1 hr followed by LPS stimulation and measured after 8 days by alcian blue staining based analysis. In kind it is functional, organism-based. Conditions: time 9.0 hrs.
Data set [7] relates to Mus musculus. The experiment in a line: Antiinflammatory activity against APAP-induced C57BL/6J mouse liver injury model assessed as reduction in necrosis at 30 mg/kg, po preincubated for 1 hr followed by APAP stimulation and measured after 12 hrs by H and E staining based analysis. It counts as functional, organism-based.
Data set [8] is described as follows: Cytotoxicity against mouse TSEC cells at up to 200 uM measured after 4 hrs by XTT assay. It counts as toxicity, cell-based.
The test system of data set [9] is Mus musculus. The experiment in a line: Antiinflammatory activity against APAP-induced C57BL/6J mouse liver injury model assessed as reduction in Cxcl1 expression at 30 mg/kg, po preincubated for 1 hr followed by APAP stimulation and measured after 8 hrs by qPCR analysis. Conditions: time 9.0 hrs. It counts as functional, organism-based.
The test system of data set [10] is Mus musculus. The experiment in a line: Antiinflammatory activity against LPS-induced C57BL/6J mouse model assessed as reduction in Cxcl1 expression at 30 mg/kg, po preincubated for 1 hr followed by LPS stimulation and measured after 8 hrs by qPCR analysis. In kind it is functional, organism-based. Conditions: time 9.0 hrs.
The test system of data set [11] is Mus musculus. In words: Antiinflammatory activity against APAP-induced C57BL/6J mouse liver injury model assessed as reduction in Ccl2 expression at 30 mg/kg, po preincubated for 1 hr followed by APAP stimulation and measured after 8 hrs by qPCR analysis. In kind it is functional, organism-based. As to conditions: time 9.0 hrs.
For data set [12], the system named is Mus musculus. The experiment in a line: Antiinflammatory activity against APAP-induced C57BL/6J mouse liver injury model assessed as reduction in Ly6G expression at 30 mg/kg, po preincubated for 1 hr followed by APAP stimulation and measured after 8 hrs by qPCR analysis. It counts as functional, organism-based. As to conditions: time 9.0 hrs.
The target of data set [13] is Bromodomain-containing protein 2 (Homo sapiens, UniProt P25440). In words: Inhibition of his9-tagged BRD2-BD2 (unknown origin) preincubated for 30 mins followed by addition of biotinylated peptide and measured after 30 mins by Alphascreen assay.
Chain of Bromodomain-containing protein 2 (P25440 whole entry): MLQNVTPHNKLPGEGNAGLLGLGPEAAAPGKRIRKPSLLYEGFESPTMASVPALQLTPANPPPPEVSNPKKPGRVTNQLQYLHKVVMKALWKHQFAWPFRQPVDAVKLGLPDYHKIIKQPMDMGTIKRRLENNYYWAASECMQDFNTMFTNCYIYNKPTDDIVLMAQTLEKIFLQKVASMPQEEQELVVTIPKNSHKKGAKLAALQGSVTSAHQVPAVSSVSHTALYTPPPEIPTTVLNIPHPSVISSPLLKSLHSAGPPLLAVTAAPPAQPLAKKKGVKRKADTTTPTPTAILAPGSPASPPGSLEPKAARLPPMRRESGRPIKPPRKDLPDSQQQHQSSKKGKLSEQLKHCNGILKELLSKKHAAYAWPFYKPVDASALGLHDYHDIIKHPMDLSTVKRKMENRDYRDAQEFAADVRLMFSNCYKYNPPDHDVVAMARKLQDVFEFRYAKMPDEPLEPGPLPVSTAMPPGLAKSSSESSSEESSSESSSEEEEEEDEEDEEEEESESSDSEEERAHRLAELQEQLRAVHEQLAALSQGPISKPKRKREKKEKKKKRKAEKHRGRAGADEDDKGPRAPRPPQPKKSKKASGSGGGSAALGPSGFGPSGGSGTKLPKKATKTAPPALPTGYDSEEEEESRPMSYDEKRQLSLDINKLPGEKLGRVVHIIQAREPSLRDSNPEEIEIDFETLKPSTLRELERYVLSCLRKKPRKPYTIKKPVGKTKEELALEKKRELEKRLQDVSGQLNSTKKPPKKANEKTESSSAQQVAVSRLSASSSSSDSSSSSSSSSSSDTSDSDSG
Data set [14] in a line: AUC in male C57BL6 mouse liver at 10 mg/kg, ip measured up to 24 hrs by LC-MS/MS analysis. As to conditions: in vivo. In kind it is ADME, organism-based.
Data set [15] relates to TSEC. In words: Antiinflammatory activity against LPS induced mouse TSEC cells assessed as inhibition of CXCL1 expression at 0.3 to 5 uM preincubated for 1 hr followed by LPS stimulation and measured after 4 hrs by qPCR analysis. It counts as functional, cell-based. As to conditions: dose 0.3-5 µM, time 5.0 hrs.
A short description of data set [16]: Cmax in male C57BL6 mouse liver at 10 mg/kg, ip measured up to 24 hrs by LC-MS/MS analysis. Conditions: in vivo. In kind it is ADME, organism-based.
The nature of data set [17]: Cmax in male C57BL6 mouse plasma at 10 mg/kg, ip measured up to 24 hrs by LC-MS/MS analysis. In kind it is ADME, organism-based.
Data set [18] can be described thus: AUC in male C57BL6 mouse plasma at 10 mg/kg, ip measured up to 24 hrs by LC-MS/MS analysis. It counts as ADME, organism-based. Conditions: for AUC at 24 h: male, C57BL6, mouse, plasma.
Data set [19] concerns TSEC. The experiment in a line: Antiinflammatory activity against LPS induced mouse TSEC cells assessed as inhibition of CCL2 expression at 0.3 to 5 uM preincubated for 1 hr followed by LPS stimulation and measured after 4 hrs by qPCR analysis. In kind it is functional, cell-based. As to conditions: dose 0.3-5 µM, time 5.0 hrs.
Data set [20] is described as follows: Half life in male C57BL6 mouse liver at 10 mg/kg, ip measured up to 24 hrs by LC-MS/MS analysis. In kind it is ADME, organism-based. Conditions: for half-life: male, C57BL6, mouse, liver.
Data set [21] can be described thus: Apparent oral clearance in male C57BL6 mouse plasma at 10 mg/kg, ip measured up to 24 hrs by LC-MS/MS analysis. In kind it is ADME, organism-based.
A short description of data set [22]: Cytotoxicity against mouse TSEC cells at 10 uM measured after 4 hrs by XTT assay. It counts as toxicity, cell-based.
Data set [23] in a line: Metabolic stability in mouse liver microsomes assessed as half life […] measured after 60 mins in presence of NADPH by LC-MS/MS analysis. In kind it is ADME, Microsome.
Data set [24] concerns the target T1, Bromodomain-containing protein 4. In words: Inhibition of N-luc fused BRD4-BD1 in HEK293T cells using NanoGlo substrate as substrate incubated for 2 hrs by NanoBRET assay. In kind it is cell-based.
For data set [25] the target is unchanged. The experiment in a line: Binding affinity to N-luc fused BRD4-BD1 in HEK293T cells assessed as apparent inhibition constant using NanoGlo substrate as substrate incubated for 2 hrs by NanoBRET assay. In kind it is cell-based. Conditions: read-out: Ki(app).
Data set [26] shares this target. The experiment in a line: Inhibition of his9-tagged BRD4-BD1 (unknown origin) preincubated for 30 mins followed by addition of biotinylated peptide and measured after 30 mins by Alphascreen assay.
Data set [27] shares this target. The experiment in a line: Inhibition of human his tagged BRD4-BD2 using Histone H4 peptide (1-21) K5/8/12/16Ac as substrate preincubated for 30 mins followed by addition of biotinylated peptide and measured after 30 mins by Alphascreen assay.
Data set [28] has the same target. The experiment in a line: Inhibition of N-luc fused BRD4-BD1 in HEK293T cells using NanoGlo substrate as substrate at 10 uM incubated for 2 hrs by NanoBRET assay relative to control. It counts as cell-based.
Where [29] appears, read: mouse, megakaryocyte cells (CFU-MK colony formation).
Where [30] appears, read: male, C57BL6, mouse, plasma, read-out: CL/F (converted).
The mark [31] stands for this setting: mouse, in vivo, ip, 10 mg/kg, 24 h.

With `CCS(=O)(=O)Nc1ccc(Oc2ccc(F)cc2F)c(-c2cn(C)c(=O)c3[nH]ccc23)c1` [MIVEBRESIB], the EC50 in [1] (setting [29]) came out at 645 nM.
As to `COc1cc2c(cc1-c1c(C)noc1C)ncc1[nH]c(=O)n([C@H](C)c3ccccn3)c12`, the result (in data set [2]; in the data set on Mus musculus [3]; with Mus musculus [4]; in the data set with Mus musculus [5]; with Mus musculus [6]; in the data set with Mus musculus [9]) was Active. Besides, the outcome in the data set on Mus musculus [10] and in the data set on Mus musculus [12] was Active. Further, the EC50 in data set [1] (megakaryocyte) was 1280 nM. Besides, the outcome in the data set with Mus musculus [7] and with Mus musculus [11] was inactive. Further, the Activity result in [8] is given as “Non-toxic”.
As to `O=C(Nc1ccc(C(F)(F)F)cc1)Nc1ccc(S(=O)(=O)N2CCC[C@H]2CN2CCOCC2)cc1`, the IC50 in data set [13] was more than 50000 nM.
Turning to `Cc1cc(C)cc(Oc2cccc(-c3c(C)nnn3C3CCN(CCN(C)C)CC3)n2)c1`, in data set [2], the outcome was inactive. In addition, the AUC in [14] was found to be 2.65 nmol·h/g. Also, the result in the data set with Mus musculus [3], in the data set with Mus musculus [6], in the data set on TSEC [15], in the data set on Mus musculus [7], in the data set on Mus musculus [9] and with TSEC [19] was Active. Moreover, the result in the data set with Mus musculus [11] and in the data set with Mus musculus [12] was Active. The EC50 in data set [1] (megakaryocyte) stood at 90 nM. Besides, the Activity result with Mus musculus [4] is “Active; Compound Showed No Significant Reduction Compared To I-Bet151 And Compound 3(Dw34)”; in the data set with Mus musculus [5], “Active; Compound Showed No Significant Reduction Compared To I-Bet151 And Compound 3(Dw34)”; in [8] it was “Non-toxic”; with Mus musculus [10], “Active; Compound Showed No Significant Reduction Compared To I-Bet151 And Compound 3(Dw34)”. Further, the Cmax in data set [16] came to 3.69 nmol/g; in data set [17], 430 nM. Further, the AUC at 24 h in [18] is 0.64 µM·h. Moreover, the half-life in [20] is 2.3 h. In addition, the CL/F in data set [21] (setting [30]) was 470 mL/min/kg.
Consider `CC(=O)Nc1c(F)cc(C(=O)N[C@H]2CC[C@H](O)CC2)cc1O[C@@H](C)c1ccccc1` [GSK046], for which the result in the data set with Mus musculus [3] and in the data set on Mus musculus [11] was inactive. For the same molecule, the concentration giving a half-maximal response (EC50) in data set [1] (megakaryocyte) came to 380 nM. In addition, in [13], the IC50 was found to be 49 nM. Also, in the data set on Mus musculus [7], the outcome was Active. For the same molecule, the figures for the Activity result (in data set [8]; in the data set on TSEC [19]) were “Non-toxic” and “Active; Compound Is Less Effective Than I-Bet151 And Compound 3”, respectively.
Take `Cc1ccc(C(C)C)cc1Oc1nccc(-c2c(-c3ccc(C(F)(F)F)cc3)ncn2C2CCNCC2)n1`: the AUC in [14] was 1402 nmol·h/g; in data set [18] (setting [31]) it was 40.2 µM·h. Moreover, the outcome in the data set with Mus musculus [3], in the data set with Mus musculus [4], with Mus musculus [5], in the data set with Mus musculus [6], in the data set on TSEC [15] and in the data set with Mus musculus [7] was Active. The outcome in the data set with Mus musculus [9], in the data set on TSEC [19], in the data set on Mus musculus [10], with Mus musculus [11] and with Mus musculus [12] was Active. Further, the Activity entry in data set [22] is given as “Toxic”. Moreover, in data set [1] (megakaryocyte), the EC50 was 670 nM. Moreover, the Cmax was 137 nmol/g in [16] and 1800 nM in data set [17]. The half-life in data set [23] came to 3.45 h. Moreover, the t1/2 in data set [20] (setting [31]) worked out at 6.8 h. Besides, the CL/F in data set [21] (setting [31]) is 418 mL/min/kg.
Consider `Cc1ccc(C(C)C)cc1Oc1nccc(-c2c(-c3ccc(C(F)(F)F)cc3)ncn2C2CCN(CCO)CC2)n1`, for which the result (in [2]; in the data set with Mus musculus [3]; with Mus musculus [12]) was inactive. Moreover, the AUC in [14] worked out at 138 nmol·h/g. Moreover, the EC50 was found to be 2450 nM in data set [24] and 1830 nM in data set [1] (megakaryocyte). In addition, the Activity entry in the data set on Mus musculus [4] is “Active; Compound Showed No Significant Reduction Compared To I-Bet151 And Compound 3(Dw34)”; in the data set on Mus musculus [5], “Active; Compound Showed No Significant Reduction Compared To I-Bet151 And Compound 3(Dw34)”; in data set [8], “Non-toxic”; with Mus musculus [10], “Active; Compound Showed No Significant Reduction Compared To I-Bet151 And Compound 3(Dw34)”. The Ki in data set [25] was 936 nM. Further, the results for the IC50 in data set [26], in data set [27] and in data set [13] were 111 nM, more than 10000 nM and more than 10000 nM, respectively. Besides, the outcome with TSEC [15], in the data set with Mus musculus [7], in the data set on Mus musculus [9], in the data set on TSEC [19] and in the data set with Mus musculus [11] was Active. Besides, the results for the Cmax in data set [16] and in [17] were 38.9 nmol/g and 1050 nM, respectively. In [18], this molecule showed an AUC at 24 h of 4.04 µM·h. Besides, in data set [28], the inhibition stood at 36%. The half-life in [23] is 1.29 h; in data set [20], 3.4 h. Further, the CL/F in data set [21] (setting [30]) is 65 mL/min/kg.
Take `CCNC(=O)c1cc2c(-c3cc(C(C)(C)O)ccc3Oc3c(C)cc(F)cc3C)cn(C)c(=O)c2[nH]1` [ABBV-744]: the EC50 in [1] (setting [29]) was 3 nM.
